Experiments:
[1] = tested on: CHLA-200 cells; experiment: Annexin V/PI flow cytometric apoptosis assay, CHLA-200; type: cell-based, human; conditions: 10 nM, 24 h
Description: (§1) Cells were seeded into 10-cm dishes and cultured overnight. Then, the cells were treated with 10 nM antisense miR-20a alone, p28 alone or AmiR20-p28 for 24 hr. Cells were washed with 1×PBS, detached with TrypleE (Invitrogen). and collected by centrifugation. Cells were washed and resuspended with 1× Annexin binding buffer (Life Technologies, catalog #V13242), and the cell density was maintained at 10^6 cells/ml. Subsequently, 5 μl of Annexin-V was added to 100 μl of the cell suspension, and the mixture was incubated for 15 min at room temperature. The cells were washed and incubated with 5 μl of PI for an additional 15 min on ice, washed and resuspended in 200 μl of buffer. Cells without treatment were used as controls. After washing, cells were subjected to flow cytometry (Gallios flow cytometer) and analyzed with Kaluza software to give the proportions of dead (top left quadrant), late apoptotic (top right quadrant), early apoptotic (bottom right quadrant) and viable (bottom left quadrant) cells.

[2] = tested on: astrocytes; experiment: Annexin V/PI flow cytometric apoptosis assay, astrocytes; type: cell-based, human; conditions: 10 nM, 24 h
Description: as §1

[3] = tested on: SJ-GBM2-luc tumors; experiment: Intracranial orthotopic SJ-GBM2-luc xenograft: bioluminescence and survival; type: in vivo, mice
Description: All animal experiments were performed in accordance with the use of animals in research and approved by IACUC. SJ-GBM2 cells stably expressing luciferase gene (pGL4.51 [luc2/CMV/Neo], Promega) were generated by a chemical transfection method (FuGENE HD, Promega) in the presence of G418 antibiotics (GoldBio). 4-5 weeks athymic mice were purchased from The Jackson Laboratory. SJ-GBM2-luc cell lines was maintained to 70% confluency and checked for their luminescence activity. Similar to the implantation method described previously, cells were resuspended in PBS at a final concentration of 10^6 cells/3 μl. Following anesthesia, a midline incision was made on the calvarium, extending from bregma to lambda sutures. At a position 2 mm posterior to bregma and 2 mm lateral to the […], a 3-mm hole was made in the skull. A 26-gauge Hamilton syringe was inserted into the hole, and 3 μl of 10^6 cells was injected slowly. The injection site was covered with sterile bone wax and sutured. As the first set of experiment, mice were randomly divided into the experimental groups and the dose finding studies were conducted with AmiR20-p28 at 0.1, and 1 mg/kg. AmiR20-p28 was administered every other day three times a week i.v. via the tail vein (200 μl/injection). As the second set of experiment, mice were randomly divided into the groups of PBS or AmiR20-p28 at 1 and 5 mg/kg (N=5). […] Mice were sacrificed based on the following humane endpoints such as >20% weight loss, the presence of labored respiration, abnormal behavior (e.g., paralysis), and loss of the ability to ambulate.
D-Luciferin potassium salt (GoldBio, #LUCK-100) at 150 mg/kg was injected intraperitoneally into the mice. Mice were anesthetized in a chamber with isoflurane/oxygen and positioned for bioluminescent imaging using a Spectral Lago X imaging system (Accela, Czech Republic). A series of images was acquired over a duration up to 30 min after the time of D-luciferin injection. Aura software (version 3.2) was used to compute regions of interest (ROIs) and integrate the total bioluminescence signal in each ROI. Data were analyzed based on radiance (photons/second/cm^2/steradian) in the ROIs. The radiance values were plotted for each animal in the experimental group to form the tumor growth curve. Overall survival was also evaluated based on their survival period (mice died due to disease or were sacrificed based on the humane endpoints criteria). For X-ray imaging, the anesthetized mice were positioned, and a Spectral Lago X imaging system was used to take images. Aura software was used to merge the images taken with X-ray and bioluminescent systems.

[4] = parameters: species or system mice; conditions: mouse, in vivo
Description: Collected samples were fixed with buffered 3.7% formalin (Anatech) for 24 hr. Formalin was replaced with 70% ethanol following fixation. Samples were paraffin-embedded, and blocks were cut into 4 μm-thick sections and mounted onto slides which were processed for H&E staining. H&E-stained slides were analyzed by a pathologist blinded to the experimental groups.
Alanine transaminase (ALT) activity was measured using ALT assay kits (Sigma, #MAK052) and serum aspartate transaminase (AST) activities was measured using AST assay kits (Sigma, #MAK055) following the manufacturer's instructions. Briefly, serum samples at different dilutions, were reacted with ALT or AST reaction mixture and plated on 96-well plate, followed by reading at A450. The final calculations were done by comparing the sample readings with that of standard curve (pyruvate standards for ALT and glutamate standards for AST).

[5] = Example 6, 1 mg/kg i.v., late phase

Substance: AmiR20-p28: BBB-permeable tumor-navigating CPP p28 (Cys-p28) covalently linked to 2′ O-methyl antisense miR-20a (5′-maleimide)
- apoptotic cells increased by [1]: 14%
- apoptotic cells after treatment [2]: 0.5%
- tumor recurrence ([3]; 1 and 5 mg/kg, continued or stopped treatment after four weeks, additional ~two months): neither the 1 mg/kg nor the 5 mg/kg dose groups exhibited any signs of tumor recurrence
- tumor growth (bioluminescence) ([3]; 1 or 5 mg/kg i.v. 3× weekly, vs PBS or 0.1 mg/kg): significant inhibition of tumor growth
- overall survival rate ([3]; Example 6, 1 mg/kg i.v., early phase): 100%
- tumor growth (bioluminescence) ([3]; Example 6, 1 mg/kg i.v., early phase, start 10 days after cell injection): complete repression of tumor
- mice survived at day 49 [3, 5]: 80%
- overall survival rate [3, 5]: 40%
- tumor growth (bioluminescence) ([3]; Example 6, 1 mg/kg i.v., late phase, start 40 days after cell injection): tumor progression was observed
- overall survival rate ([3]; Example 6, 1 mg/kg i.v., middle phase): 80%
- tumor growth (bioluminescence) ([3]; Example 6, 1 mg/kg i.v., middle phase, start 20 days after cell injection): sustained suppression of the tumor burden
- tumor growth (bioluminescence) ([3]; Example 7, 1 mg/kg i.v., early phase, 10 days after cell injection): complete repression of tumor
- tumor growth (bioluminescence) ([3]; Example 7, 1 mg/kg i.v., late phase, 42 days after cell injection): tumor progression
- tumor growth (bioluminescence) ([3]; Example 7, 1 mg/kg i.v., middle phase, 21 days after cell injection): sustained suppression of tumor growth
- overall survival probability ([3]; Example 7, 1 mg/kg, late phase): 60%
- tumor growth (bioluminescence) ([3]; Example 7, 1 mg/kg, vs PBS and 0.1 mg/kg): significant repression in tumor growth
- histology of heart, lung, liver, spleen, and kidney [4]: no AmiR20-p28-related differences in histology
- adverse effects (hepatotoxicity assay, hemolysis assay, histological examination) ([4]; iv, 1 mg/kg): without apparent adverse effects

Source: US20260193647A1, “MIRNA-BASED CANCER THERAPY WITH A TUMOR-NAVIGATING PEPTIDE” (The Board of Trustees of the Universities of Illinois, priority 2022, published 2026)
